From ChEMBL document CHEMBL2396558, “Orthogonal chemistry for the synthesis of thiocoraline-triostin hybrids. Exploring their structure-activity relationship” (2013)
Positions of bridges follow the written chain, without caps; N, C: chain ends. Non-standard residues stand in square brackets, D forms with d. Residues, ends and D or L forms follow the SMILES beside them. Chains are numbered I, II in the order given. *: point of attachment. Quinoxaline2carbonyl = O=C(c1cnc2ccccc2n1)*; NMeV = CN[C@H](C(=O)O)C(C)C; NMeC = CN[C@@H](CS)C(=O)O

How the values were obtained:
Format in all cases: functional
MDA-MB-231 = experiment: Cytotoxicity against human MDA-MB-231 cells after 72 hrs by sulforhodamine B assay; conditions: MDA-MB-231, 72 h
A549 = experiment: Cytotoxicity against human A549 cells after 72 hrs by sulforhodamine B assay; conditions: A549, 72 h; for CC50: read-out: LC50 (the source's name)
HT-29 = experiment: Cytotoxicity against human HT-29 cells after 72 hrs by sulforhodamine B assay; conditions: HT-29, 72 h; for CC50: read-out: LC50 (the source's name)

Row | Compound | GI50 (MDA-MB-231) | LC50 (concentration killing 50% of cells) (MDA-MB-231) | TGI (MDA-MB-231) | GI50 (A549) | TGI (A549) | CC50 (A549) | GI50 (HT-29) | TGI (HT-29) | CC50 (HT-29)
1 | CSC[C@H]1C(=O)N(C)C[C@@H](NC(=O)c2cnc3ccccc3n2)C(=O)NCC(=O)N(C)[C@H]2CSSC[C@@H](C(=O)N1C)N(C)C(=O)CNC(=O)[C@H](NC(=O)c1cnc3ccccc3n1)CN(C)C(=O)[C@H](CSC)N(C)C2=O | 0.0473 µM | > 8.92 µM | 1.43 µM | 0.0713 µM | > 8.92 µM | > 8.92 µM | 0.357 µM | > 8.92 µM | > 8.92 µM
2 | CC(C)[C@H]1C(=O)N(C)C[C@@H](NC(=O)c2cnc3ccccc3n2)C(=O)N[C@@H](C)C(=O)N(C)[C@H]2CSSC[C@@H](C(=O)N1C)N(C)C(=O)[C@H](C)NC(=O)[C@H](NC(=O)c1cnc3ccccc3n1)CN(C)C(=O)[C@H](C(C)C)N(C)C2=O | 5.93 µM | > 8.98 µM | > 8.98 µM | > 8.98 µM | > 8.98 µM | > 8.98 µM | 8.44 µM | > 8.98 µM | > 8.98 µM
3 | CSC[C@H]1C(=O)N(C)C[C@@H](NC(=O)c2nc3ccccc3cc2O)C(=O)NCC(=O)N(C)[C@H]2CSSC[C@@H](C(=O)N1C)N(C)C(=O)CNC(=O)[C@H](NC(=O)c1nc3ccccc3cc1O)CN(C)C(=O)[C@H](CSC)N(C)C2=O | 0.00408 µM | 0.373 µM | 0.0426 µM | 0.00339 µM | 0.02 µM | 0.165 µM |  |  | 0.747 µM
4 | CC(C)[C@H]1C(=O)OC[C@@H](NC(=O)c2nc3ccccc3cc2O)C(=O)N[C@@H](C)C(=O)N(C)[C@H]2CSSC[C@@H](C(=O)N1C)N(C)C(=O)[C@H](C)NC(=O)[C@H](NC(=O)c1nc3ccccc3cc1O)COC(=O)[C@H](C(C)C)N(C)C2=O | > 8.92 µM | > 8.92 µM | > 8.92 µM | > 8.92 µM | > 8.92 µM | > 8.92 µM | > 8.92 µM | > 8.92 µM | > 8.92 µM
5 | CSC[C@H]1C(=O)OC[C@@H](NC(=O)c2nc3ccccc3cc2O)C(=O)NCC(=O)N(C)[C@H]2CSSC[C@@H](C(=O)N1C)N(C)C(=O)CNC(=O)[C@H](NC(=O)c1nc3ccccc3cc1O)COC(=O)[C@H](CSC)N(C)C2=O | 0.462 µM | 6.4 µM | 2.75 µM | 0.311 µM | 2.75 µM | 7.91 µM | 0.4 µM | 3.55 µM | 7.55 µM
6 | CN1C[C@@H](NC(=O)c2nc3ccccc3cc2O)C(=O)NCC(=O)N(C)[C@H]2CSSC[C@@H](C(=O)N(C)[C@@H](CN)C1=O)N(C)C(=O)CNC(=O)[C@H](NC(=O)c1nc3ccccc3cc1O)CN(C)C(=O)[C@H](CN)N(C)C2=O | 8.95 µM | 8.95 µM | 8.95 µM | 8.95 µM | 8.95 µM | 8.95 µM | 8.95 µM | 8.95 µM | 8.95 µM
7 | CN1C[C@@H](NC(=O)c2nc3ccccc3cc2O)C(=O)NCC(=O)N(C)[C@H]2CSSC[C@@H](C(=O)N(C)[C@@H](CCN)C1=O)N(C)C(=O)CNC(=O)[C@H](NC(=O)c1nc3ccccc3cc1O)CN(C)C(=O)[C@H](CCN)N(C)C2=O | 8.95 µM | 8.95 µM | 8.95 µM | 8.95 µM | 8.95 µM | 8.95 µM | 8.95 µM | 8.95 µM | 8.95 µM
8 | COCCOCCOCC(=O)NC[C@H]1C(=O)N(C)C[C@@H](NC(=O)c2nc3ccccc3cc2O)C(=O)NCC(=O)N(C)[C@H]2CSSC[C@@H](C(=O)N1C)N(C)C(=O)CNC(=O)[C@H](NC(=O)c1nc3ccccc3cc1O)CN(C)C(=O)[C@H](CNC(=O)COCCOCCOC)N(C)C2=O | > 7.09 µM | > 7.09 µM | > 7.09 µM | > 7.09 µM | > 7.09 µM | > 7.09 µM | > 7.09 µM | > 7.09 µM | > 7.09 µM
9 | COCCOCCOCC(=O)NCC[C@H]1C(=O)N(C)C[C@@H](NC(=O)c2nc3ccccc3cc2O)C(=O)NCC(=O)N(C)[C@H]2CSSC[C@@H](C(=O)N1C)N(C)C(=O)CNC(=O)[C@H](NC(=O)c1nc3ccccc3cc1O)CN(C)C(=O)[C@H](CCNC(=O)COCCOCCOC)N(C)C2=O | > 6.96 µM | > 6.96 µM | > 6.96 µM | > 6.96 µM | > 6.96 µM | > 6.96 µM | > 6.96 µM | > 6.96 µM | > 6.96 µM
10 | CSC[C@H]1C(=O)SC[C@@H](NC(=O)c2nc3ccccc3cc2O)C(=O)NCC(=O)N(C)[C@H]2SSC[C@@H](C(=O)N1C)N(C)C(=O)CNC(=O)[C@H](NC(=O)c1nc3ccccc3cc1O)CSC(=O)[C@H](CSC)N(C)C2=O [THIOCORALINE] | 0.00207 µM | 0.0346 µM | 0.0095 µM | 0.00622 µM | 0.0242 µM | 0.095 µM |  |  | 0.138 µM
11 | CC(C)[C@H]1C(=O)OC[C@@H](NC(=O)c2cnc3ccccc3n2)C(=O)N[C@@H](C)C(=O)N(C)[C@H]2CSSC[C@@H](C(=O)N1C)N(C)C(=O)[C@H](C)NC(=O)[C@H](NC(=O)c1cnc3ccccc3n1)COC(=O)[C@H](C(C)C)N(C)C2=O [TRIOSTIN] (I: Quinoxaline2carbonyl-[dS]A[NMeC][NMeV] / II: Quinoxaline2carbonyl-[dS]A[NMeC][NMeV]; ester I:1-II:C, I:C-II:1; disulfide I:3-II:3) | 0.202 µM | 1.56 µM | 0.515 µM | 0.34 µM | 1.66 µM | > 9.2 µM | 0.23 µM | 2.85 µM | > 9.2 µM
